Reference: patent US20040005342A1, “Topical administration of ascorbic acid to reinforce the cohesion of the dermo-epidermal junction” (SOCIETE L'OREAL S.A., priority 2002, published 2004)

Key:
Assay type in all cases: cell-based, human
[1] = test system: collagen VII; assay: Immunofluorescence of collagen VII in reconstructed skin sections
[2] = test system: tenascin; assay: Immunofluorescence of tenascin in reconstructed skin sections
[3] = test system: fibroblasts in the lattice of reconstructed skin; assay: Reconstructed skin grown with vitamin C in the culture medium: number of fibroblasts; settings: vitamin C in culture medium throughout the phase of emersion
Excerpt: This increase is associated with a greater production of certain proteins of the extracellular matrix, in particular in the sub-epidermal zone. The most spectacular results are found in this region of the dermo-epidermal junction, with a more perpendicular arrangement of the basal keratinocytes and an increased synthesis of major components of the basal membrane, for instance tenascin and collagen VII.

[4] = reconstructed skin, vitamin CPMg 2.8′10^−4 M, 7-day emersion phase, × control

O=C1O[C@H]([C@@H](O)CO)C([O-])=C1OP(=O)([O-])[O-].O=C1O[C@H]([C@@H](O)CO)C([O-])=C1OP(=O)([O-])[O-].[Mg+2].[Mg+2].[Mg+2] [Vitamin C, magnesium ascorbyl phosphate]
Intensity and thickness of the zone of collagen VII fluorescence at the dermo-epidermal junction, versus sample without vitamin C ([1]; microscopic observation, FIG. 1): much greater
Collagen VII fluorescence intensity/unit of length ([1]; reconstructed skin, vitamin CPMg 2.8′10^−4 M during 7-day emersion phase, image analysis, normalized to identical length of dermo-epidermal junction, control 1.35): 2.50 arbitrary units
Collagen VII fluorescence intensity/unit of length, factor versus control [1, 4]: 1.85
Intensity and thickness of the zone of tenascin fluorescence (dermo-epidermal junction and superficial dermis), versus sample without vitamin C ([2]; microscopic observation, FIG. 2): much larger
Tenascin fluorescence intensity/unit of length ([2]; reconstructed skin, vitamin CPMg 2.8′10^−4 M during 7-day emersion phase, image analysis, standardized to identical length of dermo-epidermal junction, control 6.4): 11.54 arbitrary units
Tenascin fluorescence intensity/unit of length, factor versus control [2, 4]: 1.80
Number of fibroblasts in the lattice [3]: very large increase
